Measured values: US6407138B1, “Composition and method for preparing electrically neutral amino acid chelates free of interfering ions” (Albion International, Inc., priority 2000, dated 2002)

What was measured:
Particle size = type: physicochemical
From the text: The particle size found in Sample 1 and Sample 2 was about 70 mesh.

[1] = Rubbing between thumb and finger (hygroscopicity); type: physicochemical; conditions: rubbed between thumb and finger; moisture from thumb, finger and surrounding air
From the text: Sample 1 was further compared to Sample 2 by rubbing a portion of each between the thumb and finger.

[2] = Shaking in a plastic bag (electrostatic behaviour of the powder); type: physicochemical; conditions: shaken in a plastic bag
Protocol: A 10:1 mixture of copper bisglycinate to terra alba (CaSO4) [Sample 1] was prepared and shaken together in a plastic bag. Next, a pure copper bisglycinate without the presence of terra alba [Sample 2] was also prepared and shaken in a plastic bag.

[3] = Addition to stimulated gastric solution (stability in acid solution, colour change); type: physicochemical; conditions: added to stimulated gastric solution
Protocol: Finally, Sample 2 was added to a stimulated gastric solution which caused the product to change color. Sample 1 was similarly added to a stimulated gastric solution.

[4] = zero ionic strength; reaction M^2+ + (Gly)^- <-> M(Gly)^+; cited from earlier work

Compound	particle size (Particle size)	hygroscopicity: balling up with moisture [1]	electrostatic behaviour: product sticking to the walls of the bag [2]	color change in stimulated gastric solution (stability in acid solution) [3]	log of the equilibrium constant [4]
NCC(=O)[O-].NCC(=O)[O-].[Cu+2] [Sample 2, copper bisglycinate]	about 70 mesh	quickly balled up	a blue hazei of product stuck the walls of the bag	change color	
copper					8.56
